In US7790896B2, “RNA-selective probes for live cell imaging of nuclear structure and function” (New York University, priority 2006, dated 2010):

Tests used:
[1] = Fluorescence spectrum in TE buffer of dyes selected from live cell imaging; assay type: physicochemical; details: dye 10 μM in TE buffer
Experimental: The fluorescence spectra data in the primary screening and selected dyes titration assay study was obtained by Gemini XS plate reader. RNA solution was prepared right before the assay experiments to avoid possible degradation and contamination. In the primary screening, 1 mg/mL RNA (type VI from torula yeast) buffer solution was used. Point scans were carried out first using five Ex/Em point sets ([…], 400/500, 450/550, 500/600, 550/650 nm). Spectra scans were then carried out for the selected dyes. Excitation wavelengths were set at 350 nm, 400 nm, 450 nm, 500 nm, and 550 nm and the emission wavelengths were scanned. RNA (16S- and 23S-ribosomal from E. coli) and DNA (salmon testes) titration experiments and quantum yield/extinction coefficient determination for the three best dyes were carried out by the plate reader as well. Excitation λmax obtained from F-2500 Hitachi Fluorophotometer was used. Absorbance wavelength was determined by SpectraMax Plus^384 absorbance plate reader. […] was chosen as standard and 480 nm was used as excitation wavelength in the scanning for quantum yield determination.

3T3 cells = assay: Live cell staining working concentration in 3T3 cells; assay type: cell-based, mouse
Experimental: All cell staining imaging followed the same procedure. Generally, dyes in dry state were first dissolved in DMSO to obtain the stock solution. The stock solutions were then added directly to the cell culture wells to reach the desired concentration. Total DMSO was lower than 0.1%. After adding dyes, cells were incubated at 37° C. in 5% CO2 for 25 minutes. The medium was then removed and cells were rinsed with fresh medium twice. The cells were then imaged at ambient temperature in the medium. Exposure time was kept less than 5 seconds and adjusted to each dye.
In fluorescence microscopic imaging studies, it is always desirable to use as little dye as possible to stain organelles in order to maximize specificity and minimize dye toxicity and cell death. To determine the lowest working concentration of each dye, four different concentrations (20 μM, 10 μM, 5 μM, and 1 μM) were tested in four cell lines (Hela, A549, 3T3, and 3T3-L1). Dyes E36, E144, and F112 were imaged using FITC channel, and F22 was imaged using Cy3 channel. Generally, a quality fluorescence signal for each dye was produced using a concentration of 5 μM for E36, E144, and F22 and 10 μM for F112 (Table 5). It was interesting to observe that compound F22 was brighter in 3T3 cells, and a concentration of 1 μM was sufficient for a clear image (FIG. 4). […]

A549 = assay: Phototoxicity test, MTS assay of irradiated cells; assay type: cell-based, human; details: dye 5 μM, irradiated 5 minutes, 24 hours incubation
Experimental: Dye DMSO stock solutions were diluted by fresh medium into working concentration (5 μM). Cells were cultured in 96-well plate for 12 hours before experiments. The cell medium was exchanged with dye medium solutions. Cells were then incubated in at 37° C., in 5% CO2 for 25 minutes before being irradiated by fluorescent light using the appropriate working filter (FITC for E36 and E144; Cy3 for F22) for 5 minutes. The plates were then incubated at 37° C. in 5% CO2 The cell viability was measured by MTS assay after 5 and 24 hours following the cytotoxicity measurement procedure. Duplicated experiments have been tested.
Phototoxicity is also an important factor in evaluating applicability of new fluorescent probes for live cell imaging. […] Nevertheless, it is desirable for the new imaging probes to be as non-phototoxic as possible. To investigate the phototoxicity of the present RNA-selective compounds, cellular viability of irradiated cells using MTS assay was assessed. Cells were incubated with dyes (E36, E144, and F22) in their working concentration (5 μM), and then irradiated with the appropriate filters using the fluorescent microscope (FITC for E36 and E144; Cy3 for F22). While light exposures used for imaging experiments are generally a few seconds long at most, cells were irradiated for 5 minutes for prolonged toxicity measurement. […]

Row | SMILES | SPECTRUM EM [1] [nm] | SPECTRUM EX [1] [nm] | Concentration sufficient for a clear image (3T3 cells) [µM] | Phototoxicity (A549)
1 | C[n+]1c(/C=C/c2c[nH]c3ccccc23)ccc2ccccc21 [Dye E36] | 550 | 450 |  | 
2 | COc1ccc2c(ccc(/C=C/c3ccc(N(C)C)cc3)[n+]2C)c1 [Dye F22] |  |  | 1 | not A549
